Consider 13 compounds from ChEMBL document CHEMBL1137586, “Aminomethyl tetrahydronaphthalene ketopiperazine MCH-R1 antagonists--Increasing selectivity over hERG” (Bioorg Med Chem Lett, 2007).

The term inhibition denotes how much of the control response was suppressed. A lower inhibition goes with little suppression. Usually IC50 stands for the concentration needed to halve the response being measured. For orientation: Kp means tissue or fluid exposure divided by exposure in the circulation. For orientation: Ki means a measure of affinity in units of concentration, obtained from inhibition or displacement. The low end stands for tighter binding, the high end for weaker binding.

One data set concerns the target hERG (KCNH2) (Homo sapiens, UniProt Q12809). Nature of the data set: Percent inhibition of binding to hERG at10uM. In general terms: The hERG channel carries a current that helps repolarise heart muscle cells.
In data set [1] the target is T1, Voltage-gated inwardly rectifying potassium channel KCNH2 (Homo sapiens, UniProt Q12809). Description: Inhibition of binding to hERG.
Data set [2] can be described thus: Serum concentration in DIO mice 2 hr post 20mg/kg peroral dose. The data set is classed as ADME, organism-based. Conditions: mouse, po, read-out: Serum conc; call rule not given here.
Data set [3] has as its target T1, Voltage-gated inwardly rectifying potassium channel KCNH2. Nature of the data set: Prolonged QTc interval in anaesthetized dogs after 15min infusion at 30 mg/kg compared to vehicle. As to conditions: dog, in vivo, iv, 0.25 h.
Data set [4] in a line: Relative concentration in DIO mouse brain over serum 2 hr post 20mg/kg peroral dose. The data set is classed as ADME, organism-based. Conditions: po.
The target in data set [5] is T2, Melanin-concentrating hormone receptor 1 (Homo sapiens, UniProt Q99705). Description: Functional antagonism of MCH-R1 expressed in HEK293 cells. The data set is classed as cell-based.
The next data set has as its system Mus musculus. Nature of the data set: Percent weight loss in DIO mice 4 days after 20 mg/kg peroral dose. The data set is classed as functional. Conditions: route oral.
For data set [6], the target named is T2, Melanin-concentrating hormone receptor 1. Nature of the data set: Inhibition of binding to MCH-R1.

T2 sequence (Q99705 whole entry): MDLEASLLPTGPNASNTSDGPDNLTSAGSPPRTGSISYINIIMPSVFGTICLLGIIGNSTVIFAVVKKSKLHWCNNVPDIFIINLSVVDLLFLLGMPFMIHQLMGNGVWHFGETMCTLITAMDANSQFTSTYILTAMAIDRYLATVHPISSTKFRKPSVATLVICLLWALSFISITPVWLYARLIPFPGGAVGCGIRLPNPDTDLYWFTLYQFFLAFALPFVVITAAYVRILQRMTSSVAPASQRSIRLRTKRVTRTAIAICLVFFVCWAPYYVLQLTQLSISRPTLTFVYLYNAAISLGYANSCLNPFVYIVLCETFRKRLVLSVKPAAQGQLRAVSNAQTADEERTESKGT
T1 sequence (Q12809 whole entry): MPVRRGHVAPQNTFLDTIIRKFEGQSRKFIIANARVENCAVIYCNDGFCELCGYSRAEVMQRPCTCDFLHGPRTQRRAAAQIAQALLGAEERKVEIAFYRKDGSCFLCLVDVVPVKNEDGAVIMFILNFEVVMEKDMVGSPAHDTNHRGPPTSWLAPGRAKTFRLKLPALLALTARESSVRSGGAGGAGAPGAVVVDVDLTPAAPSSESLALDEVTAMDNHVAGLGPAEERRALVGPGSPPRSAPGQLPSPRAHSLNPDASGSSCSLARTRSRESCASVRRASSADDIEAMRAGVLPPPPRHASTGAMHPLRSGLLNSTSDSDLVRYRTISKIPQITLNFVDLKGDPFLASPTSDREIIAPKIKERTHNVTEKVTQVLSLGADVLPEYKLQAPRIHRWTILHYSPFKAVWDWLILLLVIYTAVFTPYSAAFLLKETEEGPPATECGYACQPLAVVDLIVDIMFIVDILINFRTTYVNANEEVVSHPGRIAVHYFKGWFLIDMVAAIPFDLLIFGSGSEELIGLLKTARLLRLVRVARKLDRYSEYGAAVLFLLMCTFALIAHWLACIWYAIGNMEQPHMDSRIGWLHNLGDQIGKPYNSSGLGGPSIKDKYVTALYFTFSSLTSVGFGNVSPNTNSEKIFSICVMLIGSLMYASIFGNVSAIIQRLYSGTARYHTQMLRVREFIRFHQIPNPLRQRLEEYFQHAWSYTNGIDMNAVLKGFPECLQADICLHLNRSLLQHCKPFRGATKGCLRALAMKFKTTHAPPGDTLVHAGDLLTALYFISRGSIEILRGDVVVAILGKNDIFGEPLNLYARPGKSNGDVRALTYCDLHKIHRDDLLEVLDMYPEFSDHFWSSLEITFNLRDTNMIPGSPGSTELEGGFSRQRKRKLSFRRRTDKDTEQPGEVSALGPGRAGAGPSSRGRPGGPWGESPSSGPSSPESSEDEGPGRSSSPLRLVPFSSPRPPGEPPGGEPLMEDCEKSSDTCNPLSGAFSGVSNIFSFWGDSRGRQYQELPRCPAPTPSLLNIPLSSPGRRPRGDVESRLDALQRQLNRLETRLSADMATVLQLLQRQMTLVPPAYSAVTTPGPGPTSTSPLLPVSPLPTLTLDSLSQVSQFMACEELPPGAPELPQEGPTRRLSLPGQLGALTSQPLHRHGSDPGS
hERG (KCNH2), sequence (Q12809 whole entry): as above

Consider `O=C1CN(CCc2ccc(F)cc2)CCN1[C@H]1CCc2cc(CNCC(F)(F)F)ccc2C1`, for which the inhibition at 10 µM on hERG (KCNH2) was > 50%.

Consider `CN(C)C(=O)C(CO)N(C)Cc1ccc2c(c1)CC[C@H](N1CCN(CCc3ccc(F)cc3)CC1=O)C2` (stereo partly drawn), for which the IC50 in data set [1] came out at 25 µM. This lies in the double-digit micromolar range.

With `CC(=O)N1CCN(Cc2ccc3c(c2)CC[C@H](N2CCN(CCc4ccc(F)cc4)CC2=O)C3)CC1`, the concentration at 2 h in data set [2] is 4 µM. This compound had an IC50 in data set [1] of 25 µM. Moreover, the QT interval entry in data set [3] was “Active p<0.05”. Also, the Kp at 2 h in data set [4] is 0.3. This compound also came in with a Ki in data set [5] of 16 µM. Also, the Weight loss with Mus musculus was <2%.

In data set [5], `CCN(CC)Cc1ccc2c(c1)CC[C@H](N1CCN(CCC3CCCCC3)CC1=O)C2` came in with a Ki of 0.032 µM.

`O=C1CN(CCc2ccc(F)cc2)CCN1[C@H]1CCc2cc(CN3CCS(=O)(=O)CC3)ccc2C1`: the concentration at 2 h in data set [2] amounted to 16 µM. Moreover, in data set [1], the IC50 was 24 µM. The Weight loss in the data set on Mus musculus is <2%.

Turning to `CCN(CC)Cc1ccc2c(c1)CC[C@H](N1CCN(CCc3cccc(C(F)(F)F)c3)CC1=O)C2`, the Ki in data set [5] came to 0.093 µM.

As for `CCN(CC)Cc1ccc2c(c1)CC[C@H](N1CCN(CCC3CCCS3)CC1=O)C2` (stereo partly drawn), in data set [5], the Ki is 0.047 µM.

In turn, `CCN(CC)Cc1ccc2c(c1)CC[C@H](N1CCN(CCc3ccc(Cl)cc3)CC1=O)C2` displayed a Ki in data set [5] of 0.0033 µM.

As to `O=C1CN(CCc2ccc(F)cc2)CCN1[C@H]1CCc2cc(Cn3ccnc3)ccc2C1`, the IC50 in data set [1] is 4 µM. The Ki in data set [5] worked out at 52 µM.

Turning to `CS(=O)(=O)N1CCN(Cc2ccc3c(c2)CC[C@H](N2CCN(CCc4ccc(F)cc4)CC2=O)C3)CC1`, the concentration at 2 h in data set [2] turned out to be 9 µM. Also, the IC50 in data set [1] worked out at 13 µM. This compound also had a Ki in data set [5] of 30 µM. Moreover, the Weight loss with Mus musculus stood at 3%.

Regarding `O=C1CN(CCc2ccc(F)cc2)CCN1[C@H]1CCc2cc(CN3CCC(C(F)(F)F)CC3)ccc2C1`, the IC50 in data set [1] came out at 2 µM. The compound also registered a Ki in data set [5] of 8.7 µM.

`CCN(CC)Cc1ccc2c(c1)CC[C@H](N1CCN(CCc3ccc(F)cc3)CC1=O)C2` registered a Ki in data set [6] of 0.015 µM. For the same compound, the concentration at 2 h in data set [2] was found to be 2 µM. In the data set with Mus musculus, this compound returned a Weight loss of 4%.

In data set [1], `O=C1CN(CCc2ccc(F)cc2)CCN1[C@H]1CCc2cc(CN3CCOCC3)ccc2C1` registered an IC50 of 11 µM. In data set [5], this compound gave a Ki of 15 µM.
